Target: Advanced glycosylation end product-specific receptor (Homo sapiens, UniProt Q15109)
Assay: Inhibitory Activity Assay
Protocol: Table 2-3: Step 1. Add 50 μl anti-DIAPH1 (1:160 dilution in 0.1M NaHCO3 pH 9.6)/well. Incubate overnight at 4° C. Day 2 Step 2. Use the plate washer to aspirate anti-DIAPH11 and wash plates 4× with PBS 100 μl per well per wash. Step 3. Add 180 μl 3% BSA in 1×PBS. Incubate for 1.5 hrs at room temperature Step 4. Use the plate washer to aspirate the blocking solution and wash 5× with PBS 300 μl per well. Step 5. Add 50 μl of DIAPH1 containing lysate (85 μg) and incubate at RT for 3 hours. Step 6. Aspirate the lysate and wash the plate 5×(100 μl) on the plate washer. Step 7. Add 25 μl PBS to the wells. Step 8. Add 0.5 μL compound per well. Step 9. Add 24.5 μL GFP RAGE tail (125 nM) into each well for 2 hrs at room temperature. Step 10. Aspirate and wash 5× with PBS (100 μL) on the plate washer. Step 11. Add 100 μl PBS in each well. Step 12. Detection: Read on fluorescence plate reader excitation 435 nm and 485 nm emission

Sequence of Advanced glycosylation end product-specific receptor (Q15109 whole entry): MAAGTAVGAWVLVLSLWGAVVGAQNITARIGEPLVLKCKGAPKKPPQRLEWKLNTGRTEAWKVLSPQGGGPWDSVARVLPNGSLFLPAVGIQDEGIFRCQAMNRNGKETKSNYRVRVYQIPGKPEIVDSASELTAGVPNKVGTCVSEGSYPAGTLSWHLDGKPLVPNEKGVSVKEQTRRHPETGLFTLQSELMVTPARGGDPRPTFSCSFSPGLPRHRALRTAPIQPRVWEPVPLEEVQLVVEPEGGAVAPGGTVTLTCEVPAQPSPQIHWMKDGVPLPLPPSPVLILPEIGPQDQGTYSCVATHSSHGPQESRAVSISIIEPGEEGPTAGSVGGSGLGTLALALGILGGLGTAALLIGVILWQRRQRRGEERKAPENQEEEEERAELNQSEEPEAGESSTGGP

**Q.** Which Kd does the source give for `CC(=O)Nc1ccc(-c2cc(C(=O)NCCN(C)C)c3ccccc3n2)cc1` [US11192859, Compound 4] here?
**A.** 56 µM

**Q.** For `CC(=O)Nc1ccc(-c2cc(C(=O)N3CCOCC3)c3ccccc3n2)cc1` [US11192859, Compound 5], which Kd is on record?
**A.** 41 µM

**Q.** `CC(=O)Nc1ccc(-c2cc(C(=O)N3CCCC3)c3ccccc3n2)cc1` [US11192859, Compound 7] was tested. Which Kd did it give?
**A.** 77 µM

**Q.** How did the Kd turn out when `COCCNC(=O)c1cc(-c2ccc(NC(C)=O)cc2)nc2ccccc12` [US11192859, Compound 6] was run?
**A.** 99 µM

Reference: BindingDB's records for patent US11192859 (2021)
